# In patent US20230255873A1, “COSMETIC OR DERMATOLOGICAL PEPTIDE-BASED TREATMENT OF THE SKIN AND ITS INTEGUMENTS” (Sederma, priority 2020, published 2023):
# The star is where a group is joined. Palmitoyl = CCCCCCCCCCCCCCCC(=O)*
# What was measured:
# [1] = tested on: normal human keratinocytes (NHK); experiment: DNA Microarray on NHK culture; assay type: cell-based; settings: 9 ppm, 24 hours, confluent NHKs
# Protocol: 1.2—DNA Microarray-Technology NHK Culture Principle: the peptide according to the invention at 9 ppm is brought into contact for 24 hours with confluent NHKs (versus control case). Then the NHKs layers are rinsed, and the cells are crushed to extract their mRNA. These mRNAs are then converted into DNA sequences which are analyzed after deposition on DNA chips and amplification by a method similar to qRT-PCR (Real-time Quantitative Reverse Transcription Polymerase Chain Reaction). The mRNA variations due to the peptide are compared to the control case (the solvent of the peptide). The results are expressed as an expression ratio between the treated case and the control case. A ratio greater than 2 is considered to be induction of gene expression ([…]).
# HaCaTs = experiment: Scratch test on HaCaTs (keratinocyte migration, with or without P. acnes); assay type: cell-based, human; settings: 24 hours after injury
# Protocol: 1.5—Scratch Test on HaCaTs
# Principle: HaCats are inoculated in a 6-well plate in a suitable medium until confluence. 24-hour contact with the peptide according to the invention (test cases) or its excipient (control case) in the culture medium is then carried out. After this first step, wounds are made on the cell layers in the experimental wells (with a dedicated tool to make reproducible and small wounds); two wells per case are dedicated to cell counting; rinsing with PBS and an addition of culture medium with or without the peptide according to the invention depending on the case, in the presence or absence of Propionibacterium acnes (100 bacteria for 1 HaCaT cell) are carried out. Photos are taken (to calculate the area of the wound at T0 over a specific area). The cultures are stopped after 24 hours of incubation and photos are taken on the same areas as at T0. A photo processing software (Image J) can calculate for each case the area at T0 and the area recolonized by cells, 24 hours after injury, and establish a ratio.
# [2] = tested on: extracellular lipases of P. acnes; experiment: Lipase activity of P. acnes (4-MUO probe); assay type: biochemical, Propionibacterium acnes; settings: vs solvent control, n = 6
# Protocol: A culture of P. acnes was carried out. The cells were then separated from the culture medium containing the lipases excreted by P. acnes. The peptide of the invention was added to samples of this cell-free medium and lipase activity was monitored using a fluorescent 4-methylumbelliferyl oleate (4-MUO) probe which is converted by lipases to fluorescent 4-methylumbelliferone, and whose signal has been recorded.
# P. acnes = P. acnes growth curve (time to OD600 nm = 0.5); assay type: cell-based, Propionibacterium acnes; settings: for Time (in hour) to reach OD600 nm = 0.5: vehicle 42-44 h
# Protocol: 1—P. acnes growth curve (same protocol as described above at point 1.4)
# P. acnes is thawed and grown over 3 days in M20 media. Then, optical density at 600 nm (OD600) is measured and 2×10^6 CFU*/mL are plated in well plates. P. acnes is then treated with 6 ppm, 9 ppm and 12 ppm of peptides. To follow bacterial cell multiplication, OD600 is measured regularly for about 1 week. […] Statistical evaluations are performed on results using a Student t test. Two independent experiments are performed (N=2).
# [3] = tested on: normal human keratinocytes (NHK); experiment: Involucrin quantification by immunohistochemistry in NHK; assay type: cell-based; settings: 5 ppm
# Protocol: Normal human keratinocytes (NHK) are grown on wells plate. When subconfluence was reached, cells received various concentrations of the peptides. After few days, evaluation of differentiation is compared to solvent control under microscope and cells are fixed to allow the study of involucrin by immunohistochemistry.
# Involucrin is an early marker of keratinocytes differentiation. The below table show the percentage of variation of involucrin vs. Control.
# Propionibacterium acnes = Propionibacterium acnes growth inhibition test (time to OD of 1); assay type: cell-based; settings: control 26 hours
# Protocol: 1.4—Propionibacterium acnes Growth Inhibition Test Principle: Suspensions of Propionibacterium acnes of equivalent density are cultured in a suitable medium in the presence (test case) or absence (control case) of the preferred peptide according to the invention, in anaerobic condition, at 37° C. Samples are taken at regular intervals to measure the OD at 600 nm, to follow the growth of the bacterial population over time. The growth curve of each culture can therefore be established.
# [4] = tested on: P. acnes (strain ATCC6919); experiment: Biofilm formation of P. acnes (crystal violet); assay type: cell-based, Propionibacterium acnes; settings: 3 days
# Protocol: The adhesion of 10^6 CFU/mL of P. acnes (strain ATCC6919) to a surface for 72 hours in an appropriate medium was evaluated. At the end of the contact plus more or less the peptide, the quantity of isolated cells, not attached, was estimated by an OD at 600 nm. The biofilm and the bacteria still attached were labeled with crystal violet solution for 20 min. After rinsing, the quantity of crystal violet remaining on the biofilms was assayed, after extraction, also with a measurement of OD at 600 nm.
substance,measurement,setting,value
palmitoyl-lysyl-threonyl-serine-lysyl-serine (Palmitoyl-KTSKS-OH; SMILES CCCCCCCCCCCCCCCC(=O)N[C@@H](CCCCN)C(=O)N[C@H](C(=O)N[C@@H](CO)C(=O)N[C@@H](CCCCN)C(=O)N[C@@H](CO)C(=O)O)[C@@H](C)O) [Pal-KTSKS],Expressed gene ABHD5 (1-acylglycerol-3-phosphate O-acyltransferase): variation compared to the control,[1],×2.14
same,Expressed gene ANXA1 (Annexin A1): variation compared to the control,[1],×3.05
same,Expressed gene AQP5 (Aquaporin 5): variation compared to the control,[1],×3.11
same,Expressed gene CALML5 (Calmodulin-like protein-5): variation compared to the control,[1],×10.73
same,Expressed gene CERS3 (Ceramide synthase 3): variation compared to the control,[1],×2.38
same,Expressed gene CGNL1 (Cingulin-like protein-1): variation compared to the control,[1],×26.40
same,Expressed gene CLDN7 (Claudin): variation compared to the control,[1],×7.24
same,Expressed gene CLDN23 (Claudin): variation compared to the control,[1],×2.69
same,Expressed gene CRNN (Cornulin): variation compared to the control,[1],×258.60
same,Expressed gene DEFB1 (Beta-1-defensin): variation compared to the control,[1],×4.48
same,Expressed gene DEFB103B (Human beta defensin-3): variation compared to the control,[1],×337.87
same,Expressed gene DMKN (Dermokin): variation compared to the control,[1],×3.58
same,Expressed gene ELOVL4 (3-keto acyl-CoA synthase): variation compared to the control,[1],×5.06
same,Expressed gene FLG2 (Filaggrine-2): variation compared to the control,[1],×197
same,Expressed gene HMOX1 (Heme Oxygenase-1): variation compared to the control,[1],×29.27
same,Expressed gene IL37 (Interleukin-37): variation compared to the control,[1],×7.82
same,Expressed gene IVL (Involucrin): variation compared to the control,[1],×8.43
same,Expressed gene KLK5 (Kallikrein 5): variation compared to the control,[1],×2.2
same,Expressed gene LCE2C: variation compared to the control,[1],×37.7
same,Expressed gene LCE3A (Late Cornified Envelop Protein): variation compared to the control,[1],×306.86
same,Expressed gene LCE3B: variation compared to the control,[1],×324.01
same,Expressed gene LCE3D: variation compared to the control,[1],×1454.67
same,Expressed gene LOR (Loricrin): variation compared to the control,[1],×193
same,Expressed gene OCLN (Occludin): variation compared to the control,[1],×8.65
same,Expressed gene PADI-1 (Peptidyl Arginin Deaminase): variation compared to the control,[1],×185.61
same,Expressed gene PI3 (Elafin): variation compared to the control,[1],×7.73
same,Expressed gene PRSS8 (Serine protease-8): variation compared to the control,[1],×2.74
same,Expressed gene RNASE7 (RNase 7): variation compared to the control,[1],×40.85
same,Expressed gene S100A7 (Psoriasin): variation compared to the control,[1],×15.73
same,Expressed gene SPINK5 (Serine protease inhibitor Kazal-type 5): variation compared to the control,[1],×3.77
same,Expressed gene SPRR1A (Small Proline Rich Region Protein): variation compared to the control,[1],×2.00
same,Expressed gene SPRR2A: variation compared to the control,[1],×24.09
same,Expressed gene SPRR2B: variation compared to the control,[1],×451.61
same,Expressed gene SPRR2C: variation compared to the control,[1],×15.35
same,Expressed gene SPRR2D: variation compared to the control,[1],×23.97
same,Expressed gene SPRR2E: variation compared to the control,[1],×12.48
same,Expressed gene SPRR2F: variation compared to the control,[1],×15.29
same,Expressed gene SPRR2G: variation compared to the control,[1],×687.57
same,Expressed gene SPRR3: variation compared to the control,[1],×48.62
same,Expressed gene SPRR4: variation compared to the control,[1],×23.16
same,Expressed gene TGM1 (Transglutaminase-1): variation compared to the control,[1],×4.66
same,Expressed gene TGM5 (Transglutaminase-5): variation compared to the control,[1],×27.1
same,Expressed gene TIMP1 (Metallopeptidase inhibitor 1): variation compared to the control,[1],×3.68
same,Expressed gene TIMP2 (Metallopeptidase inhibitor 2): variation compared to the control,[1],×5.96
same,Expressed gene TJP1 (Tight junction protein ZO-1): variation compared to the control,[1],×2.02
same,"Keratinocyte migration, variation compared to the control","HaCaTs; With P. acnes (Reference 2), 5 ppm of peptide",−49.67%
same,"Keratinocyte migration, variation compared to the control","HaCaTs; With P. acnes (Reference 2), 7 ppm of peptide",−66.15%
same,"Keratinocyte migration, variation compared to the control","HaCaTs; Without P. acnes, 5 ppm of peptide",−3% (nsd)
same,"Keratinocyte migration, variation compared to the control","HaCaTs; Without P. acnes, 7 ppm of peptide",−0.36% (nsd)
same,"Lipase activity of P. acnes, Variation (%)",[2]; 6 ppm of peptide,−22%; p < 0.01
same,"Lipase activity of P. acnes, Variation (%)",[2]; 9 ppm of peptide,−64%; p < 0.01
same,"Lipase activity of P. acnes, Variation (%)",[2]; 12 ppm of peptide,−88%; p < 0.01
same,Delay in P. acnes growth versus vehicle,P. acnes; 6 ppm,+5 h
same,Time (in hour) to reach OD600 nm = 0.5,P. acnes; 6 ppm,48.8 h
same,Delay in P. acnes growth versus vehicle,P. acnes; 9 ppm,+11 h
same,Time (in hour) to reach OD600 nm = 0.5,P. acnes; 9 ppm,55.0 h
same,Delay in P. acnes growth versus vehicle,P. acnes; 12 ppm,+43 h
same,Time (in hour) to reach OD600 nm = 0.5,P. acnes; 12 ppm,87.3 h
same,Involucrin (% var vs. Control),[3],+177%; p < 0.01
same,Growth of P. acnes: time required to reach an OD of 1,Propionibacterium acnes; 6 ppm of peptide,54 h
same,Growth of P. acnes: time required to reach an OD of 1,Propionibacterium acnes; 9 ppm of peptide,103 h
same,Growth of P. acnes: time required to reach an OD of 1,Propionibacterium acnes; 12 ppm of peptide,135 h
same,"Formation of the biofilm by P. acnes, variation vs control",[4]; 6 ppm,−98%
same,"Formation of the biofilm by P. acnes, variation vs control",[4]; 12 ppm,−99%
